# In ChEMBL document CHEMBL1201862, “PubChem BioAssay data set” (2004):
#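 How tested: cells in 96-well plates exposed to compound for 48 hours at five concentrations. Abbreviation: GI50, concentration required for 50% inhibition of growth.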 Calls of active or inactive are those of the source. No stated cut-off is given here; in the data, active = GI50 up to about 1.1 µM and inactive = higher.
# Assays:
# Experiment in all cases: growth of human tumour cells (NCI), 48 h
# SK-MEL-5 = tested on: SK-MEL-5
# SF-295 = tested on: SF-295
# TK-10 = tested on: TK-10
# MOLT-4 = tested on: MOLT-4
# NCI-H23 = tested on: NCI-H23
# U-251 = tested on: U-251
# HOP-92 = tested on: HOP-92
# OVCAR-4 = tested on: OVCAR-4
# T47D = tested on: T47D
# CAKI-1 = tested on: CAKI-1
# A549 = tested on: A549
# IGROV-1 = tested on: IGROV-1
# MDA-MB-435 = tested on: MDA-MB-435
# LOX IMVI = tested on: LOX IMVI
# UACC-62 = tested on: UACC-62
# HCT-116 = tested on: HCT-116
# SNB-75 = tested on: SNB-75
# NCI/ADR-RES = tested on: NCI/ADR-RES
# NCI-H460 = tested on: NCI-H460
# CCRF-CEM = tested on: CCRF-CEM
Compound,GI50 (SK-MEL-5),GI50 (SF-295),GI50 (TK-10),GI50 (MOLT-4),GI50 (NCI-H23),GI50 (U-251),GI50 (HOP-92),GI50 (OVCAR-4),GI50 (T47D),GI50 (CAKI-1),GI50 (A549),GI50 (IGROV-1),GI50 (MDA-MB-435),GI50 (LOX IMVI),GI50 (UACC-62),GI50 (HCT-116),GI50 (SNB-75),GI50 (NCI/ADR-RES),GI50 (NCI-H460),GI50 (CCRF-CEM)
O=c1[nH]cc(NCCCl)c(=O)[nH]1,> 100 µM (inactive),> 100 µM (inactive),> 100 µM (inactive),> 100 µM (inactive),> 100 µM (inactive),> 100 µM (inactive),> 100 µM (inactive),> 100 µM (inactive),> 100 µM (inactive),> 100 µM (inactive),> 100 µM (inactive),> 100 µM (inactive),> 100 µM (inactive),> 100 µM (inactive),> 100 µM (inactive),> 100 µM (inactive),> 100 µM (inactive),> 100 µM (inactive),> 100 µM (inactive),> 100 µM (inactive)
O=C(CC(c1ccccc1)C1C(=O)NC(=S)NC1=O)c1ccc([N+](=O)[O-])cc1 (stereo not given),> 100 µM (inactive),> 100 µM (inactive),> 100 µM (inactive),> 100 µM (inactive),> 100 µM (inactive),> 100 µM (inactive),> 100 µM (inactive),> 100 µM (inactive),17.8 µM (inactive),22.4 µM (inactive),> 100 µM (inactive),> 100 µM (inactive),> 100 µM (inactive),63.4 µM (inactive),> 100 µM (inactive),76.6 µM (inactive),> 100 µM (inactive),> 100 µM (inactive),> 100 µM (inactive),> 100 µM (inactive)
Nc1c2ccccc2nc2ccc(C(=O)Nc3ccc(S(N)(=O)=O)cc3)cc12,> 100 µM (inactive),> 100 µM (inactive),> 100 µM (inactive),> 100 µM (inactive),> 100 µM (inactive),> 100 µM (inactive),> 100 µM (inactive),> 100 µM (inactive),> 100 µM (inactive),> 100 µM (inactive),> 100 µM (inactive),> 100 µM (inactive),> 100 µM (inactive),> 100 µM (inactive),> 100 µM (inactive),> 100 µM (inactive),> 100 µM (inactive),> 100 µM (inactive),> 100 µM (inactive),> 100 µM (inactive)
c1ccc(C2C(=P(c3ccccc3)(c3ccccc3)c3ccccc3)P=PC2[P+](c2ccccc2)(c2ccccc2)c2ccccc2)cc1.c1ccc([B-](c2ccccc2)(c2ccccc2)c2ccccc2)cc1 (stereo not given),0.191 µM (active),0.492 µM (active),0.762 µM (active),1.63 µM (inactive),0.351 µM (active),0.176 µM (active),0.555 µM (active),0.652 µM (active),0.191 µM (active),3.66 µM (inactive),0.422 µM (active),0.57 µM (active),0.171 µM (active),0.333 µM (active),2.44 µM (inactive),0.0841 µM (active),0.582 µM (active),3.48 µM (inactive),0.447 µM (active),2.25 µM (inactive)
NCCCNC1(c2cc3ccccc3s2)CCCCC1,1.82 µM (inactive),9.48 µM (inactive),3.75 µM (inactive),3.29 µM (inactive),15.7 µM (inactive),2.93 µM (inactive),11.6 µM (inactive),11.1 µM (inactive),2.58 µM (inactive),8.43 µM (inactive),7.1 µM (inactive),10.6 µM (inactive),1.94 µM (inactive),2.31 µM (inactive),1.92 µM (inactive),2.06 µM (inactive),10.9 µM (inactive),13.5 µM (inactive),1.94 µM (inactive),2.48 µM (inactive)
O=C(NNc1ccccc1)c1ccc(Cl)c(Cl)c1,1.3 µM (inactive),0.0676 µM (active),20.7 µM (inactive),21.5 µM (inactive),34.4 µM (inactive),18.2 µM (inactive),> 78.9 µM (inactive),16.2 µM (inactive),0.918 µM (active),0.259 µM (active),6.59 µM (inactive),13.2 µM (inactive),0.206 µM (active),0.0438 µM (active),0.0667 µM (active),14 µM (inactive),25.8 µM (inactive),5.25 µM (inactive),0.219 µM (active),1.12 µM (inactive)
CCC/C(Cl)=N/OC(=O)Nc1cccc(F)c1,5.79 µM (inactive),17.5 µM (inactive),2.38 µM (inactive),1.89 µM (inactive),16.7 µM (inactive),17.3 µM (inactive),1.6 µM (inactive),9.79 µM (inactive),2.71 µM (inactive),3.33 µM (inactive),19.1 µM (inactive),13.2 µM (inactive),11.9 µM (inactive),1.91 µM (inactive),14.4 µM (inactive),4.19 µM (inactive),3.4 µM (inactive),6.04 µM (inactive),19 µM (inactive),0.526 µM (active)
Clc1ccc2c(NCCNc3ccnc4cc(Cl)ccc34)ccnc2c1,22.4 µM (inactive),13.3 µM (inactive),17.9 µM (inactive),17.4 µM (inactive),17.1 µM (inactive),17.9 µM (inactive),15.2 µM (inactive),20 µM (inactive),23.6 µM (inactive),20.2 µM (inactive),18.5 µM (inactive),18.2 µM (inactive),17.8 µM (inactive),17.7 µM (inactive),18.1 µM (inactive),16.9 µM (inactive),21.5 µM (inactive),30.8 µM (inactive),14 µM (inactive),14.6 µM (inactive)
Cc1cccc2c(N)c3cccc(C(=O)NCC[N+](C)(C)Cc4ccccc4[N+](=O)[O-])c3nc12,7.57 µM (inactive),6.32 µM (inactive),6.62 µM (inactive),1.09 µM (active),5.22 µM (inactive),5 µM (inactive),10 µM (inactive),8.32 µM (inactive),14.2 µM (inactive),5.71 µM (inactive),2.24 µM (inactive),5.78 µM (inactive),21.1 µM (inactive),26.2 µM (inactive),8.05 µM (inactive),5.92 µM (inactive),1.64 µM (inactive),8.67 µM (inactive),2.24 µM (inactive),1.78 µM (inactive)
O=C1C(c2c(O)[nH]c3ccc([N+](=O)[O-])cc23)=Nc2ccccc21,> 100 µM (inactive),43 µM (inactive),34.6 µM (inactive),65.9 µM (inactive),> 100 µM (inactive),21.2 µM (inactive),> 100 µM (inactive),> 100 µM (inactive),> 100 µM (inactive),> 100 µM (inactive),> 100 µM (inactive),10 µM (inactive),> 100 µM (inactive),> 100 µM (inactive),> 100 µM (inactive),> 100 µM (inactive),13.8 µM (inactive),> 100 µM (inactive),> 100 µM (inactive),> 100 µM (inactive)
Cc1ccc2[nH]c3c(c2c1)C1CCC(C(C)(C)C)CC1C1C(=O)N(c2ccc(Oc4ccccc4)cc2)C(=O)C31 (stereo not given),> 92.5 µM (inactive),26.6 µM (inactive),20 µM (inactive),2.77 µM (inactive),19.3 µM (inactive),5.61 µM (inactive),14.4 µM (inactive),14.2 µM (inactive),16.2 µM (inactive),12.7 µM (inactive),16.3 µM (inactive),30.8 µM (inactive),58.6 µM (inactive),24.2 µM (inactive),47.1 µM (inactive),18.5 µM (inactive),2.32 µM (inactive),20.5 µM (inactive),16 µM (inactive),2.63 µM (inactive)
COc1ccc(C(c2cc(OC)c(OC)c(OC)c2)N2C(=O)CCC2C(=O)O)cc1 (stereo not given),41.9 µM (inactive),24.3 µM (inactive),> 100 µM (inactive),72.6 µM (inactive),82.8 µM (inactive),38.3 µM (inactive),> 100 µM (inactive),> 100 µM (inactive),47.2 µM (inactive),79.6 µM (inactive),40.2 µM (inactive),84.5 µM (inactive),21.8 µM (inactive),66.8 µM (inactive),51.3 µM (inactive),35.5 µM (inactive),59 µM (inactive),> 100 µM (inactive),38.8 µM (inactive),38.8 µM (inactive)
O=C1c2cc([N+](=O)[O-])sc2C(=O)c2cc([N+](=O)[O-])sc21,2.51 µM (inactive),8.2 µM (inactive),5.89 µM (inactive),2.84 µM (inactive),5.26 µM (inactive),1.79 µM (inactive),1.85 µM (inactive),4.51 µM (inactive),3.55 µM (inactive),3.76 µM (inactive),20.2 µM (inactive),1.56 µM (inactive),2.1 µM (inactive),1.36 µM (inactive),1.87 µM (inactive),1.67 µM (inactive),12.6 µM (inactive),3.62 µM (inactive),19.4 µM (inactive),0.711 µM (active)
CC(=O)NC(CCCOC(C)=O)C(=O)NC(CCCOC(C)=O)C(=O)NC(CCCOC(C)=O)C(=O)NC(Cc1ccc([N+](=O)[O-])cc1)C(=O)NCC(=O)OCc1ccccc1 (stereo not given),> 100 µM (inactive),> 100 µM (inactive),> 100 µM (inactive),> 100 µM (inactive),> 100 µM (inactive),> 100 µM (inactive),> 100 µM (inactive),> 100 µM (inactive),> 100 µM (inactive),> 100 µM (inactive),> 100 µM (inactive),> 100 µM (inactive),> 100 µM (inactive),> 100 µM (inactive),> 100 µM (inactive),> 100 µM (inactive),> 100 µM (inactive),> 100 µM (inactive),> 100 µM (inactive),> 100 µM (inactive)
